As usually defined, the EC50 is the concentration that produces a half-maximal response. A lower EC50 goes with an effect from little substance. One may read the bioavailability as the share of a dose that reaches the circulation, judged against a reference dose that is usually intravenous. High values mean much systemic uptake, low ones little systemic uptake. The clearance is the volume of plasma or blood freed of the substance per unit of time. Low values mean a low capacity for elimination, high ones a high capacity for elimination. For orientation: AUC(0-t) means exposure summed from dosing to a finite time, without extrapolation to infinity. High values mean more exposure, low ones less exposure. The term Tmax denotes the time from dosing to the highest level. The MRT is the average time that molecules of a dose stay in the body. By Cmax is commonly meant the maximum level reached in the sampled fluid or tissue. Usually IC50 stands for the concentration that inhibits the measured activity by half. What is called inhibition in vivo is the share of the control response that was lost under treatment.

Data set [1] has as its system Mus musculus. The experiment in a line: Antiobesity activity in obese C57BL/6J mouse assessed as body weight loss at 0.3 mg/kg/day administered via subcutaneous osmotic pumps by continuous dosing measured on day 11 relative to control. The data set is classed as functional.
The test system of data set [2] is Mus musculus. The experiment in a line: Antiobesity activity in obese C57BL/6J mouse assessed as inhibition of cumulative food intake at 0.03 to 0.3 mg/kg/day administered via subcutaneous osmotic pumps by continuous dosing for 11 days. It counts as functional, organism-based.
The subject of data set [3] is Mus musculus. In words: Anorectic activity in C57BL/6J mouse assessed as inhibition of food intake at 0.1 mg/kg/day, sc administered by infusion as continuous dosing for 3 days relative to 1 mg/kg/day PYY (3 to 36 residues). The data set is classed as functional.
The target in data set [4] is T1, Neuropeptide Y receptor type 2 (Homo sapiens, UniProt P49146).
T1 sequence (P49146 whole entry): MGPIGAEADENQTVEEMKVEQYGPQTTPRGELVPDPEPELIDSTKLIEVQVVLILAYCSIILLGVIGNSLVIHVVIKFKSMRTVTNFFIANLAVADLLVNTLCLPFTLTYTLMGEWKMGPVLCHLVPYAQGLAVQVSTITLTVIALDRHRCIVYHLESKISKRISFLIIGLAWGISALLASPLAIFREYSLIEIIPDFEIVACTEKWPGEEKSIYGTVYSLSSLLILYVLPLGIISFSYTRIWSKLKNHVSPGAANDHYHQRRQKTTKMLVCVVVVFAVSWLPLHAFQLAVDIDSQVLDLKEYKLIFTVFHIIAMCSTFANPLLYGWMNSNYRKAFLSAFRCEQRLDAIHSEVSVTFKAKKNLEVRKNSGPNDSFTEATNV
The experiment in a line: Agonist activity at human Y2 receptor expressed in CHO cell membranes after 120 mins by [35S]GTPgammaS binding assay. It counts as functional.

Data set [5] in a line: Bioavailability in C57BL/6J mouse at 1 mg/kg, sc by LC/MS/MS analysis. Particulars: in vivo. The data set is classed as ADME, organism-based.
Data set [6] in a line: Total clearance in C57BL/6J mouse at 1 mg/kg, iv by LC/MS/MS analysis. It counts as ADME, organism-based. Particulars: in vivo.
Data set [7] is described as follows: AUC (0 to 24 hrs) in C57BL/6J mouse at 1 mg/kg, iv by LC/MS/MS analysis. Details: time < 24 hr, dose 1 mg/kg, route intravenous. As to conditions: in vivo. The data set is classed as ADME, organism-based.
In data set [8] the test system is Mus musculus. In words: Anorectic activity in lean C57BL/6J mouse assessed as inhibition of cumulative food intake at 3 to 300 nmol/kg through bolus subcutaneous administration measured 24 hrs post dose. It counts as functional, organism-based.
The subject of data set [9] is Mus musculus. In words: Anorectic activity in lean C57BL/6J mouse assessed as inhibition of cumulative food intake at 3 to 300 nmol/kg through bolus subcutaneous administration measured 3 to 24 hrs post dose. The data set is classed as functional, organism-based.
Data set [10] has as its system Mus musculus. The experiment in a line: Anorectic activity in C57BL/6J mouse assessed as inhibition of food intake at 0.3 mg/kg/day, sc administered by infusion as continuous dosing for 3 days relative to 1 mg/kg/day PYY (3 to 36 residues). It counts as functional.
For data set [11], the system named is Mus musculus. In words: Anorectic activity in C57BL/6J mouse assessed as inhibition of food intake at 0.03 mg/kg/day, sc administered by infusion as continuous dosing for 3 days relative to 1 mg/kg/day PYY (3 to 36 residues). The data set is classed as functional.
A short description of data set [12]: Tmax in C57BL/6J mouse at 1 mg/kg, sc by LC/MS/MS analysis. As to conditions: in vivo. The data set is classed as ADME, organism-based.
For data set [13], the system named is Mus musculus. The experiment in a line: Antidiabetic activity in type 2 diabetes obese mouse assessed as reduction in plasma glucose level at 0.03 to 0.3 mg/kg/day administered via subcutaneous osmotic pumps by continuous dosing for 11 days. The data set is classed as functional, organism-based.
Data set [14] in a line: Mean residence time in C57BL/6J mouse at 1 mg/kg, sc by LC/MS/MS analysis. It counts as ADME, organism-based. As to conditions: in vivo.
Data set [15] is described as follows: Cmax in C57BL/6J mouse at 1 mg/kg, sc by LC/MS/MS analysis. It counts as ADME, organism-based. Details: dose 1 mg/kg, route subcutaneous. As to conditions: in vivo.
Data set [16] in a line: Volume of distribution at steady state in C57BL/6J mouse at 1 mg/kg, iv by LC/MS/MS analysis. The data set is classed as ADME, organism-based. As to conditions: in vivo, read-out: Vdss.
Data set [17] deals with Mus musculus. The experiment in a line: Antidiabetic activity in type 2 diabetes obese mouse assessed as reduction in glycated hemoglobin level at 0.03 to 0.3 mg/kg/day administered via subcutaneous osmotic pumps by continuous dosing for 11 days. The data set is classed as functional, organism-based.
Data set [18] concerns Mus musculus. In words: Mean absorption time in C57BL/6J mouse at 1 mg/kg, sc by LC/MS/MS analysis. It counts as ADME, organism-based. As to conditions: in vivo.
The nature of data set [19]: AUC (0 to 24 hrs) in C57BL/6J mouse at 1 mg/kg, sc by LC/MS/MS analysis. The data set is classed as ADME, organism-based. Details: dose 1 mg/kg, time < 24 hr, route subcutaneous. As to conditions: in vivo.
A short description of data set [20]: Plasma concentration in C57BL/6J mouse at 1 mg/kg, iv after 5 mins by LC/MS/MS analysis. It counts as ADME, organism-based.
Data set [21] addresses T1, Neuropeptide Y receptor type 2. The experiment in a line: Displacement of [125I]peptide YY from human Y2 receptor expressed in CHO cell membranes after 60 mins by TopCount scintillation counting analysis.
The nature of data set [22]: Mean residence time in C57BL/6J mouse at 1 mg/kg, iv by LC/MS/MS analysis. Particulars: in vivo. It counts as ADME, organism-based.
For data set [23], the system named is Mus musculus. In words: Anorectic activity in C57BL/6J mouse assessed as inhibition of food intake at 1 mg/kg/day, sc administered by infusion as continuous dosing for 3 days relative to 1 mg/kg/day PYY (3 to 36 residues). It counts as functional. Particulars: 72 h.

Activity calls are given as the source filed them. No cut-off for these calls is given here. Where a SMILES comes first, the peptide text is derived from it. [ ]: non-standard residue; d: D form. The star is where a group is joined. dHyp = O=C(O)[C@H]1C[C@H](O)CN1; Cha = N[C@@H](CC1CCCCC1)C(=O)O; Aib = CC(C)(N)C(=O)O; Bz = O=C(c1ccccc1)*

As for `CC(=O)N[C@@H](CO)C(=O)N1CCC[C@@H]1C(=O)N[C@@H](CCCNC(=N)N)C(=O)N[C@@H](Cc1ccncc1)C(=O)N[C@@H](CC1CCCCC1)C(=O)NC(C)(C)C(=O)N[C@@H](CC(N)=O)C(=O)N[C@@H](CCCCN)C(=O)NC(C)(C)C(=O)N[C@H](C(=O)N[C@@H](CCCNC(=N)N)C(=O)N[C@@H](CCC(N)=O)C(=O)N[C@@H](CCCNC(=N)N)C(=O)N[C@@H](CC1CCCCC1)C(N)=O)[C@@H](C)O`, the Activity in data set [1] was determined as 23%. For the same compound, the inhibition result in data set [2] and in data set [9] was “Active” each time. Also, the “inhibition (INH)” value was 80% in data set [3], 112% in data set [10] and 38% in [11]. Besides, the EC50 in data set [4] came to 0.2 nM. In data set [5], this compound returned a bioavailability of 66.6%. In data set [6], the clearance is 39.9 mL/min/kg. Besides, the exposure AUC(0-t) at 24 h in data set [7] turned out to be 0.231 µM·h; in data set [19], 0.154 µM·h. The outcome in data set [8], in data set [13] and in [17] was Active. Moreover, the Tmax in data set [12] stood at 10.2 min. The MRT in data set [14] amounted to 26.4 min; in data set [22], 20.4 min. In addition, the peak level in [15] (Cmax) was 283 nM. In addition, the Vd in data set [16] turned out to be 0.809 L/kg. Further, in [18], the MAT was found to be 0.1 h. The concentration at 5 min in data set [20] is 1060 nM. Further, the IC50 in data set [21] was found to be 0.92 nM.
With `CC(C)C[C@H](NC(=O)[C@H](CC(N)=O)NC(=O)[C@H](CC1CCCCC1)NC(=O)[C@H](CC1CCCCC1)NC(=O)[C@H](Cc1cnc[nH]1)NC(=O)[C@H](CCCNC(=N)N)NC(=O)c1ccccc1)C(=O)NC(C)(C)C(=O)N[C@H](C(=O)N[C@@H](CCCNC(=N)N)C(=O)N[C@@H](CCC(N)=O)C(=O)N[C@@H](CCCNC(=N)N)C(=O)N[C@@H](CC1CCCCC1)C(N)=O)[C@@H](C)O` (Bz-RH[Cha][Cha]NL[Aib]TRQR[Cha]-NH2), in [4], a half-maximal effect (EC50) was put at 2 nM. For the same compound, in data set [5], the bioavailability came to 5.9%. The same compound had an MAT in [18] of 2.72 h. In data set [21], this compound registered an IC50 of 7.4 nM.
The compound `CC(=O)N[C@@H](CO)C(=O)N1CCC[C@@H]1C(=O)N[C@@H](CCCNC(=N)N)C(=O)N[C@@H](Cc1cnc[nH]1)C(=O)N[C@@H](CC1CCCCC1)C(=O)N[C@@H](CC1CCCCC1)C(=O)N[C@@H](CC(N)=O)C(=O)N[C@@H](CCCNC(=N)N)C(=O)NC(C)(C)C(=O)N[C@H](C(=O)N[C@@H](CCCNC(=N)N)C(=O)N[C@@H](CCC(N)=O)C(=O)N[C@@H](CCCNC(=N)N)C(=O)N[C@@H](CC1CCCCC1)C(N)=O)[C@@H](C)O` showed a concentration for a half-maximal effect (EC50) in data set [4] of 0.16 nM. In addition, the inhibition in vivo at 1 mg/kg/day in data set [23] worked out at 59%. Moreover, in [21], the IC50 worked out at 0.6 nM.
The matching figures for `CC(=O)N[C@@H](CO)C(=O)N1CCC[C@@H]1C(=O)N[C@@H](CCCNC(=N)N)C(=O)N[C@@H](CO)C(=O)N[C@@H](CC1CCCCC1)C(=O)N[C@@H](CC1CCCCC1)C(=O)N[C@@H](CC(N)=O)C(=O)N[C@@H](CC(C)C)C(=O)NC(C)(C)C(=O)N[C@H](C(=O)N[C@@H](CCCNC(=N)N)C(=O)N[C@@H](CCC(N)=O)C(=O)N[C@@H](CCCNC(=N)N)C(=O)N[C@@H](CC1CCCCC1)C(N)=O)[C@@H](C)O`: 0.33 nM, 54% and 0.97 nM.
`CC(=O)N[C@@H](CO)C(=O)N1CCC[C@@H]1C(=O)N[C@@H](CCCNC(=N)N)C(=O)N[C@@H](Cc1ccncc1)C(=O)N[C@@H](CC1CCCCC1)C(=O)N[C@@H](CC1CCCCC1)C(=O)N[C@@H](CC(N)=O)C(=O)N[C@@H](CC(C)C)C(=O)NC(C)(C)C(=O)N[C@H](C(=O)N[C@@H](CCCNC(=N)N)C(=O)N[C@@H](CCC(N)=O)C(=O)N[C@@H](CCCNC(=N)N)C(=O)N[C@@H](CC1CCCCC1)C(N)=O)[C@@H](C)O`: in data set [4], it took 0.19 nM to reach a half-maximal effect (EC50). In [23], the inhibition in vivo at 1 mg/kg/day came to 72%. The compound further returned an IC50 in [21] of 0.49 nM.
As for `CC(=O)N[C@@H](CO)C(=O)N1C[C@@H](O)C[C@@H]1C(=O)N[C@@H](CCCNC(=N)N)C(=O)N[C@@H](Cc1cnc[nH]1)C(=O)N[C@@H](CC1CCCCC1)C(=O)N[C@@H](CC1CCCCC1)C(=O)N[C@@H](CC(N)=O)C(=O)N[C@@H](CC(C)C)C(=O)NC(C)(C)C(=O)N[C@H](C(=O)N[C@@H](CCCNC(=N)N)C(=O)N[C@@H](CCC(N)=O)C(=O)N[C@@H](CCCNC(=N)N)C(=O)N[C@@H](CC1CCCCC1)C(N)=O)[C@@H](C)O` (Ac-S[dHyp]RH[Cha][Cha]NL[Aib]TRQR[Cha]-NH2), the “inhibition (INH)” value in data set [3] worked out at 18%. In data set [4], the EC50 turned out to be 0.2 nM. The bioavailability in data set [5] came out at 18.6%. Further, the MAT in data set [18] came out at 0.14 h. Moreover, the IC50 in data set [21] turned out to be 0.7 nM.

Values taken from ChEMBL document CHEMBL4052740, “Potent antiobesity effect of a short-length peptide YY-analogue continuously administered in mice” (Bioorg Med Chem Lett, 2017).
